{
  "source": "patent US9695155B2",
  "about": "“Herbicidal substituted pyrimidinyloxy benzene compounds” (E. I. DU PONT DE NEMOURS AND COMPANY, priority 2013, dated 2017)",
  "assay_in_all_cases": "Test C preemergence",
  "key": {"lambsquarters": {"system": "lambsquarters", "assay_type": "in vivo, Chenopodium album", "conditions": "for Lambsquarters plant response rating: preemergence; for Plant response rating, Lambsquarters: Preemergence, 62 g ai/ha, scale 0 to 100, 0 no effect, 100 complete control", "how_it_was_run": "(§1)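 Seeds are planted in blended loam soil and sand and treated preemergence, while seedlings in a peat moss/vermiculite medium receive postemergence sprays at 2 to 18 cm height. All plants stay in the greenhouse for 13 to 15 days before visual comparison with controls on a 0–100 scale.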"}, "soybean": {"system": "soybean", "assay_type": "in vivo, Glycine max", "conditions": "for Soybean plant response rating: preemergence; for Plant response rating, Soybean: Preemergence, 62 g ai/ha, scale 0 to 100, 0 no effect, 100 complete control", "how_it_was_run": "as §1"}, "oilseed rape": {"system": "oilseed rape", "assay_type": "in vivo, Brassica napus", "conditions": "for Oilseed Rape plant response rating: preemergence; for Plant response rating, Oilseed Rape: Preemergence, 62 g ai/ha, scale 0 to 100, 0 no effect, 100 complete control", "how_it_was_run": "as §1"}, "waterhemp": {"system": "waterhemp", "assay_type": "in vivo, Amaranthus rudis", "conditions": "for Waterhemp plant response rating: preemergence; for Plant response rating, Waterhemp: Preemergence, 62 g ai/ha, scale 0 to 100, 0 no effect, 100 complete control", "how_it_was_run": "as §1"}, "barnyardgrass": {"system": "barnyardgrass", "assay_type": "in vivo, Echinochloa crus-galli", "conditions": "for Barnyardgrass plant response rating: preemergence; for Plant response rating, Barnyardgrass: Preemergence, 62 g ai/ha, scale 0 to 100, 0 no effect, 100 complete control", "how_it_was_run": "as §1"}, "pigweed": {"system": "pigweed", "assay_type": "in vivo, Amaranthus retroflexus", "conditions": "for Pigweed plant response rating: preemergence; for Plant response rating, Pigweed: Preemergence, 62 g ai/ha, scale 0 to 100, 0 no effect, 100 complete control", "how_it_was_run": "as §1"}, "large (Lg) crabgrass": {"system": "large (Lg) crabgrass", "assay_type": "in vivo, Digitaria sanguinalis", "conditions": "for Crabgrass, Large plant response rating: preemergence; for Plant response rating, Crabgrass, Large: Preemergence, 62 g ai/ha, scale 0 to 100, 0 no effect, 100 complete control", "how_it_was_run": "as §1"}, "giant foxtail": {"system": "giant foxtail", "assay_type": "in vivo, Setaria faberii", "conditions": "for Foxtail, Giant plant response rating: preemergence; for Plant response rating, Foxtail, Giant: Preemergence, 62 g ai/ha, scale 0 to 100, 0 no effect, 100 complete control", "how_it_was_run": "as §1"}, "ragweed": {"system": "ragweed", "assay_type": "in vivo, Ambrosia elatior", "conditions": "for Ragweed plant response rating: preemergence; for Plant response rating, Ragweed: Preemergence, 62 g ai/ha, scale 0 to 100, 0 no effect, 100 complete control", "how_it_was_run": "as §1"}, "velvetleaf": {"system": "velvetleaf", "assay_type": "in vivo, Abutilon theophrasti", "conditions": "for Velvetleaf plant response rating: preemergence; for Plant response rating, Velvetleaf: Preemergence, 62 g ai/ha, scale 0 to 100, 0 no effect, 100 complete control", "how_it_was_run": "as §1"}, "morningglory": {"system": "morningglory", "assay_type": "in vivo, Ipomoea coccinea", "conditions": "for Morningglory plant response rating: preemergence; for Plant response rating, Morningglory: Preemergence, 62 g ai/ha, scale 0 to 100, 0 no effect, 100 complete control", "how_it_was_run": "as §1"}, "blackgrass": {"system": "blackgrass", "assay_type": "in vivo, Alopecurus myosuroides", "conditions": "for Blackgrass plant response rating: preemergence; for Plant response rating, Blackgrass: Preemergence, 62 g ai/ha, scale 0 to 100, 0 no effect, 100 complete control", "how_it_was_run": "as §1"}, "galium": {"system": "galium", "assay_type": "in vivo, Galium aparine", "conditions": "for Galium plant response rating: preemergence; for Plant response rating, Galium: Preemergence, 62 g ai/ha, scale 0 to 100, 0 no effect, 100 complete control", "how_it_was_run": "as §1"}, "[1]": {"conditions": "16 g ai/ha, scale 0 to 100 (0 no effect, 100 complete control)"}, "[2]": {"conditions": "125 g ai/ha, scale 0 (no effect) to 100 (complete control)"}, "[3]": {"conditions": "250 g ai/ha, scale 0 (no effect) to 100 (complete control)"}},
  "data": [
    {"compound": "Cc1cnc(Oc2cccc(C#N)c2-n2cc(C(F)(F)F)cn2)nc1", "note": "[Compound 180]", "values": [
      {"measurement": "Lambsquarters plant response rating", "setting": "lambsquarters; [1]", "result": 85},
      {"measurement": "Lambsquarters plant response rating", "setting": "lambsquarters; [2]", "result": 100},
      {"measurement": "Plant response rating, Lambsquarters", "setting": "lambsquarters", "result": 100},
      {"measurement": "Soybean plant response rating", "setting": "soybean; [1]", "result": 90},
      {"measurement": "Soybean plant response rating", "setting": "soybean; [2]", "result": 98},
      {"measurement": "Plant response rating, Soybean", "setting": "soybean", "result": 98},
      {"measurement": "Oilseed Rape plant response rating", "setting": "oilseed rape; [1]", "result": 55},
      {"measurement": "Oilseed Rape plant response rating", "setting": "oilseed rape; [2]", "result": 100},
      {"measurement": "Plant response rating, Oilseed Rape", "setting": "oilseed rape", "result": 100},
      {"measurement": "Waterhemp plant response rating", "setting": "waterhemp; [1]", "result": 90},
      {"measurement": "Waterhemp plant response rating", "setting": "waterhemp; [2]", "result": 100},
      {"measurement": "Plant response rating, Waterhemp", "setting": "waterhemp", "result": 100},
      {"measurement": "Barnyardgrass plant response rating", "setting": "barnyardgrass; [1]", "result": 60},
      {"measurement": "Barnyardgrass plant response rating", "setting": "barnyardgrass; [2]", "result": 100},
      {"measurement": "Plant response rating, Barnyardgrass", "setting": "barnyardgrass", "result": 100},
      {"measurement": "Pigweed plant response rating", "setting": "pigweed; [1]", "result": 85},
      {"measurement": "Pigweed plant response rating", "setting": "pigweed; [2]", "result": 100},
      {"measurement": "Plant response rating, Pigweed", "setting": "pigweed", "result": 100},
      {"measurement": "Crabgrass, Large plant response rating", "setting": "large (Lg) crabgrass; [1]", "result": 100},
      {"measurement": "Crabgrass, Large plant response rating", "setting": "large (Lg) crabgrass; [2]", "result": 100},
      {"measurement": "Plant response rating, Crabgrass, Large", "setting": "large (Lg) crabgrass", "result": 100},
      {"measurement": "Foxtail, Giant plant response rating", "setting": "giant foxtail; [1]", "result": 90},
      {"measurement": "Foxtail, Giant plant response rating", "setting": "giant foxtail; [2]", "result": 100},
      {"measurement": "Plant response rating, Foxtail, Giant", "setting": "giant foxtail", "result": 100},
      {"measurement": "Ragweed plant response rating", "setting": "ragweed; [1]", "result": 20},
      {"measurement": "Ragweed plant response rating", "setting": "ragweed; [2]", "result": 98},
      {"measurement": "Plant response rating, Ragweed", "setting": "ragweed", "result": 80},
      {"measurement": "Velvetleaf plant response rating", "setting": "velvetleaf; [1]", "result": 75},
      {"measurement": "Velvetleaf plant response rating", "setting": "velvetleaf; [2]", "result": 100},
      {"measurement": "Plant response rating, Velvetleaf", "setting": "velvetleaf", "result": 100},
      {"measurement": "Morningglory plant response rating", "setting": "morningglory; [1]", "result": 35},
      {"measurement": "Morningglory plant response rating", "setting": "morningglory; [2]", "result": 100},
      {"measurement": "Plant response rating, Morningglory", "setting": "morningglory", "result": 100},
      {"measurement": "Blackgrass plant response rating", "setting": "blackgrass; [1]", "result": 20},
      {"measurement": "Blackgrass plant response rating", "setting": "blackgrass; [2]", "result": 90},
      {"measurement": "Plant response rating, Blackgrass", "setting": "blackgrass", "result": 90},
      {"measurement": "Galium plant response rating", "setting": "galium; [1]", "result": 80},
      {"measurement": "Galium plant response rating", "setting": "galium; [2]", "result": 100},
      {"measurement": "Plant response rating, Galium", "setting": "galium", "result": 100}
    ]},
    {"compound": "N#Cc1cnn(-c2c(C#N)cccc2Oc2ncc(Cl)cn2)c1", "note": "[Compound 200]", "values": [
      {"measurement": "Lambsquarters plant response rating", "setting": "lambsquarters; [2]", "result": 98},
      {"measurement": "Lambsquarters plant response rating", "setting": "lambsquarters; [3]", "result": 98},
      {"measurement": "Plant response rating, Lambsquarters", "setting": "lambsquarters", "result": 98},
      {"measurement": "Soybean plant response rating", "setting": "soybean; [2]", "result": 95},
      {"measurement": "Soybean plant response rating", "setting": "soybean; [3]", "result": 100},
      {"measurement": "Plant response rating, Soybean", "setting": "soybean", "result": 90},
      {"measurement": "Oilseed Rape plant response rating", "setting": "oilseed rape; [2]", "result": 98},
      {"measurement": "Oilseed Rape plant response rating", "setting": "oilseed rape; [3]", "result": 98},
      {"measurement": "Plant response rating, Oilseed Rape", "setting": "oilseed rape", "result": 98},
      {"measurement": "Waterhemp plant response rating", "setting": "waterhemp; [2]", "result": 100},
      {"measurement": "Waterhemp plant response rating", "setting": "waterhemp; [3]", "result": 100},
      {"measurement": "Plant response rating, Waterhemp", "setting": "waterhemp", "result": 100},
      {"measurement": "Barnyardgrass plant response rating", "setting": "barnyardgrass; [2]", "result": 100},
      {"measurement": "Barnyardgrass plant response rating", "setting": "barnyardgrass; [3]", "result": 100},
      {"measurement": "Plant response rating, Barnyardgrass", "setting": "barnyardgrass", "result": 100},
      {"measurement": "Pigweed plant response rating", "setting": "pigweed; [2]", "result": 100},
      {"measurement": "Pigweed plant response rating", "setting": "pigweed; [3]", "result": 100},
      {"measurement": "Plant response rating, Pigweed", "setting": "pigweed", "result": 100},
      {"measurement": "Crabgrass, Large plant response rating", "setting": "large (Lg) crabgrass; [2]", "result": 100},
      {"measurement": "Crabgrass, Large plant response rating", "setting": "large (Lg) crabgrass; [3]", "result": 100},
      {"measurement": "Plant response rating, Crabgrass, Large", "setting": "large (Lg) crabgrass", "result": 100},
      {"measurement": "Foxtail, Giant plant response rating", "setting": "giant foxtail; [2]", "result": 100},
      {"measurement": "Foxtail, Giant plant response rating", "setting": "giant foxtail; [3]", "result": 100},
      {"measurement": "Plant response rating, Foxtail, Giant", "setting": "giant foxtail", "result": 100},
      {"measurement": "Ragweed plant response rating", "setting": "ragweed; [2]", "result": 100},
      {"measurement": "Ragweed plant response rating", "setting": "ragweed; [3]", "result": 98},
      {"measurement": "Plant response rating, Ragweed", "setting": "ragweed", "result": 100},
      {"measurement": "Velvetleaf plant response rating", "setting": "velvetleaf; [2]", "result": 100},
      {"measurement": "Velvetleaf plant response rating", "setting": "velvetleaf; [3]", "result": 100},
      {"measurement": "Plant response rating, Velvetleaf", "setting": "velvetleaf", "result": 100},
      {"measurement": "Morningglory plant response rating", "setting": "morningglory; [2]", "result": 98},
      {"measurement": "Morningglory plant response rating", "setting": "morningglory; [3]", "result": 98},
      {"measurement": "Plant response rating, Morningglory", "setting": "morningglory", "result": 95},
      {"measurement": "Blackgrass plant response rating", "setting": "blackgrass; [2]", "result": 98},
      {"measurement": "Blackgrass plant response rating", "setting": "blackgrass; [3]", "result": 98},
      {"measurement": "Plant response rating, Blackgrass", "setting": "blackgrass", "result": 95},
      {"measurement": "Galium plant response rating", "setting": "galium; [2]", "result": 100},
      {"measurement": "Galium plant response rating", "setting": "galium; [3]", "result": 100},
      {"measurement": "Plant response rating, Galium", "setting": "galium", "result": 100}
    ]}
  ]
}
